The test system of one test is U-87MG cells. In words: MTT cell viability assay. The settings on record: Homo sapiens, 72 h, n.e.: no effect (≤25 % effect up to 50 μM). The class given is cell-based. As for the experimental part: (§1) GraphPad Prism (GraphPad Software).
(§2) 2.8. MTT Cell Viability Assay
(§3) U-87MG cells (3 × 10^3 cells/well) or MDA-MB-231 cells (5 × 10^3 cells/well) were seeded in 96-well flat-bottomed plates. After 24 h the cells were incubated with the stock solutions of the respective compounds dissolved in DMSO (highest DMSO concentration, 0.5%) to reach the final concentrations as indicated. Controls received DPBS or DMSO. Following a 71 h incubation period 20 µl of a freshly prepared 5 mg/ml MTT (3-(4,5-dimethylthiazol-2-yl)-2,5-diphenyltetrazolium bromide, AppliChem GmbH, Darmstadt, Germany) solution were added into each well. The supernatant was discarded after 1 h incubation at 37 °C and the precipitated formazan was dissolved in 200 µl DMSO/well. Absorption was measured at 570 nm with background subtraction at 690 nm using a photometric microplate reader (Thermo Scientific Multiskan EX, Thermo Fisher Scientific). Data was further subtracted by the DMSO control and normalized on DPBS. The half-maximal effective concentration (EC50) was determined by plotting dose response curves and nonlinear regression with GraphPad Prism (GraphPad Software). […]

The next test deals with HDAC1 (Homo sapiens, UniProt Q13547). In words: Simple Western immunoassay, HDAC1 levels in MM.1S cell lysates. It counts as cell-based. Details: endogenous in cells; host or cells: MM.1S. Particulars: MM.1S cells, 10 μM; for reduction of HDAC1 levels: 24 h. As for the experimental part:
Figure 3 Initial degradation screening of HDAC1 and 6 by DCAF11‐recruiting PROTACs by Simple Western™ immunoassay analysis of MM.1S cell lysates. MM.1S cells were treated with the indicated compound (10 μM) or vehicle (DMSO) for 24 h. […] Bottom: Representative images from a total of n=3 biological replicates, labeled with spacer type; w/o: without spacer.
2. Biological Experiments
No unexpected or unusually high safety hazards were encountered.
The human multiple myeloma cell line MM.1S (CRL-2974) was obtained from American Type Culture Collection (ATCC, Manassas, VA, USA). The semi-adherent cells were cultivated in RPMI 1640 medium (Catalog#21875-034, Gibco, ThermoFisher Scientific Inc., Waltham, MA, USA) supplemented with 10% FBS (PAN Biotech GmbH; Aidenbach, Germany), 100 IU/mL penicil lin, 0.1 mg/mL streptomycin (PAN Biotech GmbH) and 1 mM sodium pyruvate (ThermoFisher Scientific Inc.). […]
(PAN Biotech GmbH). All cells were cultured at 37 °C in a 5% CO2 atmosphere. Incubation times, as part of assay protocols, were performed under these conditions as well. The semi-adherent MM.1S were detached mechanically by using a cell scraper and the adhered […] were trypsinased by trypsin/EDTA (0.05%/0.02% in DPBS, PAN Biotech GmbH) whereas the U-87MG were detached by […]
2.2. Simple Western™ Immunoassay
For the cell lysates, MM.1S (0.5 × 10^6 cells/mL) or U-87MG (0.18 × 10^6 cells/mL) cells were seeded and incubated with the indicated concentration of compound or vehicle (DMSO) for the given time. The adherent cells were cultured for 24 h under cell culture conditions for attachment before treatment. Cell lysis was performed with Cell Extraction Buffer (10 mM Tris, pH 7.4, 100 mM NaCl, 1 mM EDTA, […]
SDS, 0.5% deoxycholate; Catalog# FNN0011, Thermo Fisher Scientific Inc., Waltham, MA, USA) with addition of Halt Protease Inhibitor Cocktail (100×) (Catalog# 78429, Life Technologies GmbH, Carlsbad, CA, USA) and phenylmethanesulfonyl fluoride (Catalog# 10837091001, Sigma-Aldrich, St.
Louis, MO, USA) according to manufacturer´s instructions. Protein content was determined by Pierce™ BCA Protein Assay Kit (Catalog# 23225, Thermo Fisher Scientific Inc.) according to manufacturer´s guidelines. Cell lysates were diluted to a final concentration of 1 mg/mL and denatured according to manufacturer’s guidelines. Anti-HDAC1 (Catalog# 5356S, Cell Signaling Technology, Denver, MA, USA), anti-HDAC6 (Catalog#7558S, Cell Signaling Technology) and anti-GAPDH (Catalog# 2118S, […]
Fluorescence Separation 8x25 Capillary Cartridges (Catalog# SM-FL004-1, Protein Simple, Bio-Techne, Minneapolis, MN, USA) were used for separation and the Anti-Mouse Detection Module (Catalog# DM-002, Protein Simple) was used for detection with addition of 20x Anti-Rabbit HRP […]
Conjugate (Catalog# 043-426, Protein Simple) according to manufacturer´s instructions. The assay was performed with the Jess Simple Western System (catalog# 004-650, Protein Simple), according to manufacturer´s settings. Evaluation and quantification was performed with the compass software (6.2.0, Protein Simple). GraphPad Prism (GraphPad Software, San Diego, CA, USA) was used for normalization, statistical analysis and bar graph creation. Significance testing was performed with a one-way analysis of variance (ANOVA). […]
of each mean compared to a reference mean value. […]
AMC (Catalog# 233691-67-3, BLD pharma) was prepared with and without IGEPAL CA-630 (0.5%, Catalog# J61055, Alfa Aesar). 10 µL of the substrate solution was added and incubated for 3 h under cell culture conditions. The reaction was stopped with 100 µL of stop solution (50 mM Tris-HCl, […]
Trypsin) and incubated for 1.5 h under cell culture conditions. The fluorescence signal was measured by a FLUOstar OPTIMA microplate reader (BMG labtech, Ortenburg, Germany) at excitation of λ = 355 nm and emission of λ = 460 nm. All Compounds were tested in two independent experiments in duplicates and IC50 was determined by nonlinear regression with GraphPad Prim.

The next test relates to MDA-MB-231 cells. In words: MTT cell viability assay. The class given is cell-based, human. Particulars: 72 h, n.e.: no effect (≤25 % effect up to 50 μM); for EC50: Homo sapiens, MDA-MB-231. Here is the method:
as §1, §2, §3
On the technique in general: Formazan colour is commonly taken as a measure of viable cells.

Chain of HDAC1 (Q13547 whole entry): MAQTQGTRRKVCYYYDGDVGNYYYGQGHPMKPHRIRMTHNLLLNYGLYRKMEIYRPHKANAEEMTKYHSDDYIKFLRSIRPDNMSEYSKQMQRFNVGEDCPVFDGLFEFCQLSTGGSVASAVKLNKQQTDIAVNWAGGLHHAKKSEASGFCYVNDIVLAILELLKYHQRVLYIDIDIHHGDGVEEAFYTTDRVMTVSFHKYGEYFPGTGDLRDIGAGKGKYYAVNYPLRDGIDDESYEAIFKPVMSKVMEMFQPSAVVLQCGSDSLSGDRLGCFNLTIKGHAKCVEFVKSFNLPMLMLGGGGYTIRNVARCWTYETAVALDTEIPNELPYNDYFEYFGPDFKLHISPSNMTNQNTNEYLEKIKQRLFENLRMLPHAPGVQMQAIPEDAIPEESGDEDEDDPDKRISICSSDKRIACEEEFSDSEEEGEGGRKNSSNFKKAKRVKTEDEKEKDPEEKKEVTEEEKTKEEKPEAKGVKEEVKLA

By EC50 is commonly meant the midpoint of the concentration-response curve. A high value points to weaker potency. Take `O=CN(CCCCCCCCCCCC(=O)Nc1ccc(C(=O)NCCCCCCC(=O)NO)cc1)C(C(=O)NCc1ccccc1)c1ccc(Cl)c(Cl)c1` (centres unmarked) [Compound 1j-nc]: the EC50 with U-87MG cells was determined as 43 ± 18 µM. Further, the “effect on HDAC1 protein levels” value at HDAC1 (14 h) is “not able to affect the protein levels of HDAC1 and 6”. The entries for the “EC50 MDA-MB-231” value in the test with MDA-MB-231 cells and with MDA-MB-231 cells (listed as 1j‐nc) were “n.e” and “no activity”, respectively.

For the compound `O=C(CCCCCCNC(=O)c1ccc(NC(=O)CCCCCCCCCCCN(C(=O)CCl)C(C(=O)NCc2ccccc2)c2ccc(Cl)c(Cl)c2)cc1)NO` (centres unmarked) [Compound 1j], the 50% effective concentration (EC50) in the test on U-87MG cells stood at 30 ± 5 µM; in the test on MDA-MB-231 cells, 28 ± 10 µM. In addition, the “reduction of HDAC1 levels” value on HDAC1 is 71%. Besides, the “time dependent degradation of HDAC1” value on HDAC1 (after 6 h) is “significant degradation”.

As to `O=C(CCCCCCNC(=O)c1ccc(N(C(=O)CCl)C(C(=O)NCc2ccccc2)c2ccc(Cl)c(Cl)c2)cc1)NO` (centres unmarked) [Compound 2], the EC50 stood at 12 ± 3 µM in the test on U-87MG cells and 8.8 ± 3.2 µM in the test with MDA-MB-231 cells. In addition, the “reduction of HDAC1 levels” value at HDAC1 amounted to 55%.

The record behind these values is paper PMC12091851, “Replacing a Cereblon Ligand by a DDB1 and CUL4 Associated Factor 11 (DCAF11) Recruiter Converts a Selective Histone Deacetylase 6 PROTAC into a Pan‐Degrader” (Chemmedchem, 2025).
